{"source": "ChEMBL document CHEMBL4145533", "about": "“6,7-Dimorpholinoalkoxy quinazoline derivatives as potent EGFR inhibitors with enhanced antiproliferative activities against tumor cells” (Eur J Med Chem, 2018)", "key": {"A-431": {"test_system": "A-431", "assay": "Antiproliferative activity against human A431 cells harboring wild type EGFR after 72 hrs by MTT assay", "format": "functional, cell-based", "details": "A-431, 72 h"}, "HCC827": {"test_system": "HCC827", "assay": "Antiproliferative activity against human HCC827 cells harboring EGFR E746-A750 del mutant after 72 hrs by MTT assay", "format": "functional, cell-based", "details": "HCC827, 72 h"}, "NCI-H1975": {"test_system": "NCI-H1975", "assay": "Antiproliferative activity against human NCI-H1975 cells harboring EGFR L858R/T790M double mutant after 72 hrs by MTT assay", "format": "functional, cell-based", "details": "NCI-H1975, 72 h"}, "SW480": {"test_system": "SW480", "assay": "Antiproliferative activity against human SW480 cells harboring wild type EGFR after 72 hrs by MTT assay", "format": "functional, cell-based", "details": "SW480, 72 h"}, "[1]": {"target": "Epidermal growth factor receptor (Homo sapiens, UniProt P00533, L858R)", "sequence (P00533 25-1210 L858R limits assumed)": "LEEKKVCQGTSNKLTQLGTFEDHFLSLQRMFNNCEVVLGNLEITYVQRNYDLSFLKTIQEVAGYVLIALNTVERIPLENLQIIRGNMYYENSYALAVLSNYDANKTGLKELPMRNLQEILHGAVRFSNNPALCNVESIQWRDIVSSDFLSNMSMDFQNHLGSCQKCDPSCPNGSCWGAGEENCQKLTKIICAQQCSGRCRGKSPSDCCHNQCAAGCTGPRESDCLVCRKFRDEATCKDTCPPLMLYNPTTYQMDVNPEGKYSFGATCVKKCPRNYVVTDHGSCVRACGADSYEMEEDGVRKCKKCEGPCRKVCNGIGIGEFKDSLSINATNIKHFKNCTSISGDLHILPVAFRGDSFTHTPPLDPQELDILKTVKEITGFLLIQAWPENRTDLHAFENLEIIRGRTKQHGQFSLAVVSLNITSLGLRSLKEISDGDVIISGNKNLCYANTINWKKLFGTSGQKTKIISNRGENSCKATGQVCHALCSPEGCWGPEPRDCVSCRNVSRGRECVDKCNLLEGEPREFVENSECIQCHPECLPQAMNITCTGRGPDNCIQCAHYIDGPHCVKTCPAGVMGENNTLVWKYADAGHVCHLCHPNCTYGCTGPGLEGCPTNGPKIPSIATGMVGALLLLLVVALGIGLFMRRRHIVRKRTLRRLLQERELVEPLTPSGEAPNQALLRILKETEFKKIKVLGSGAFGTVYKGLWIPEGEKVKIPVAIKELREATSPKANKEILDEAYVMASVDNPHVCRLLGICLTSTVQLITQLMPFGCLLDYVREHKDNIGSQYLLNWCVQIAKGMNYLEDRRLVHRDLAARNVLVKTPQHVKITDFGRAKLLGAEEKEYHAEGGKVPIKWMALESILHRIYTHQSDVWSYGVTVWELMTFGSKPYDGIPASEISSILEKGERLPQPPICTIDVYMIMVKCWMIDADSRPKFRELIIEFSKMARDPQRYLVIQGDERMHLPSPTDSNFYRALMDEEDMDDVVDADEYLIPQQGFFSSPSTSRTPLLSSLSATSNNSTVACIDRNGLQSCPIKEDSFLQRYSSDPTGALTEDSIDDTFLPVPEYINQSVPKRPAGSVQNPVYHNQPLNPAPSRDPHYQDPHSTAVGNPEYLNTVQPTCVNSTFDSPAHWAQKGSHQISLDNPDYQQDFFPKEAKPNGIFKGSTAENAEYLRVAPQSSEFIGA", "assay": "Inhibition of EGFR L858R mutant (unknown origin) using ULight-poly GT as substrate preincubated for 120 mins followed by substrate addition measured after 2 hrs by spectrophotometric method"}, "[2]": {"target": "Epidermal growth factor receptor (Homo sapiens, UniProt P00533, T790M)", "sequence (P00533 25-1210 T790M limits assumed)": "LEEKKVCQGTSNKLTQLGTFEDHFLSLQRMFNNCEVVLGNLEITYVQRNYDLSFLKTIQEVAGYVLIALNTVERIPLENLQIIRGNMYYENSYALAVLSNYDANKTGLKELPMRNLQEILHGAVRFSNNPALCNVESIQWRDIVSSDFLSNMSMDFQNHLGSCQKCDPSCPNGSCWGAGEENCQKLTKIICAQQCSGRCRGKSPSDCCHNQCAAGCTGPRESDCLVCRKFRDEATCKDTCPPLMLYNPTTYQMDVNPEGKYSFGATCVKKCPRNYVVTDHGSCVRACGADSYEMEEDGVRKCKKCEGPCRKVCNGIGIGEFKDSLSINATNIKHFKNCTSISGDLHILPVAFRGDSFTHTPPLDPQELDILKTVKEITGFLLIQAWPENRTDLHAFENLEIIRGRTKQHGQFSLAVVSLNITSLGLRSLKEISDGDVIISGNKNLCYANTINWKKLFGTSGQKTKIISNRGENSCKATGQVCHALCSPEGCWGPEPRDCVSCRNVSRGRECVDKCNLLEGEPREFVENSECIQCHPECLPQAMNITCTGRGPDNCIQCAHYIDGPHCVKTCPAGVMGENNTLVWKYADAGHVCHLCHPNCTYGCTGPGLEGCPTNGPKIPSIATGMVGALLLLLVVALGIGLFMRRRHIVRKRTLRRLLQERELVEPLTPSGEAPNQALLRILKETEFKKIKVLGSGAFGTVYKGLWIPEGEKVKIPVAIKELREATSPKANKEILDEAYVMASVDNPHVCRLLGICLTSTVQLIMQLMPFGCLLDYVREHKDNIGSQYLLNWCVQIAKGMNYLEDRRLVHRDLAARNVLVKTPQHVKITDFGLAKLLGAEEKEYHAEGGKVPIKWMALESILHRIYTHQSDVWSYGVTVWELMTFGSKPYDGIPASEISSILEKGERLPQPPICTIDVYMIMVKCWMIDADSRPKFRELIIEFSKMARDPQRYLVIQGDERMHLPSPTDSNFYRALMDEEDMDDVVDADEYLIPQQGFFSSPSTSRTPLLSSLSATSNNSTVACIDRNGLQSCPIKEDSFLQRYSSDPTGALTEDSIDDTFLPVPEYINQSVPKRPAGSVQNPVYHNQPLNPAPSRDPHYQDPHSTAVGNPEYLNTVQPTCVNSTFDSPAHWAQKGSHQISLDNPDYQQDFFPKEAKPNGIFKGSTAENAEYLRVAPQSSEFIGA", "assay": "Inhibition of EGFR T790M mutant (unknown origin) preincubated for 10 mins followed by TK substrate-botion addition measured after 1 hr by spectrophotometric method"}, "[3]": {"target": "T1, Epidermal growth factor receptor (Homo sapiens, UniProt P00533)", "T1 sequence (P00533 whole entry)": "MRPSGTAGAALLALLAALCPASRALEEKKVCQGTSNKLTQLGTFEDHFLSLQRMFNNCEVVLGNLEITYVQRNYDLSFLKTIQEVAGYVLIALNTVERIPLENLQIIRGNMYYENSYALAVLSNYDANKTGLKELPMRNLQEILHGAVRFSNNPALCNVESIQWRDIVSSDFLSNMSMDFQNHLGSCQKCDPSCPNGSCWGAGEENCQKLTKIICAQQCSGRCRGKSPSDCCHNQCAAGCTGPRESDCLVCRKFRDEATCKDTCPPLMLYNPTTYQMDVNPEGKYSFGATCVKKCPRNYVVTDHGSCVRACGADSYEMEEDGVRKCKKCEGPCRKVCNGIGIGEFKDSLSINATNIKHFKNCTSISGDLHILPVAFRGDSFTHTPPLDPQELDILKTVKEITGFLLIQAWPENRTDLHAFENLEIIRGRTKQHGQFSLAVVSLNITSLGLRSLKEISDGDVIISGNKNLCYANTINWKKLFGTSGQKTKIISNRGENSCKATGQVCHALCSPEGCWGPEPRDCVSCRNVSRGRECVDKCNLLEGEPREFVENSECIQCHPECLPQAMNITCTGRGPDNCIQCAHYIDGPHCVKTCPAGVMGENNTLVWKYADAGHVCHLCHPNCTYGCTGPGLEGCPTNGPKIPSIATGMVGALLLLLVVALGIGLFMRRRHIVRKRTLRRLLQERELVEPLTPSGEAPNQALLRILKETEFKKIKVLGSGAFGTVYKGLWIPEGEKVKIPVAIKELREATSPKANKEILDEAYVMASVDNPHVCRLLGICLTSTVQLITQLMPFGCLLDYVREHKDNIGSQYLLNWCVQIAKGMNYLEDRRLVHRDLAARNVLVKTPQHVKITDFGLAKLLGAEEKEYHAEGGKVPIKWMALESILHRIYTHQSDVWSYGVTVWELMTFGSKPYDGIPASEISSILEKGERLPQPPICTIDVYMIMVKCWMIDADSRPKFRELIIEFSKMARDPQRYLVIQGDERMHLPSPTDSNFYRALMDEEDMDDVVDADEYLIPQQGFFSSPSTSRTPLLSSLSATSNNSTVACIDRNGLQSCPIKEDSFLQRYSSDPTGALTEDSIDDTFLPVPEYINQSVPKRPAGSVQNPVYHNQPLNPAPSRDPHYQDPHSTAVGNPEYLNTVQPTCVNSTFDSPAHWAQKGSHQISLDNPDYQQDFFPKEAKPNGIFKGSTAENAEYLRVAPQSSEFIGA", "assay": "Inhibition of EGF-induced EGFR phosphorylation at Tyrosine residue in human A549 cells at 0.2 uM preincubated for 2 hrs followed by EGF stimulation measured after 10 mins by Western blot analysis", "format": "cell-based"}, "[4]": {"target": "T1, Epidermal growth factor receptor", "assay": "Inhibition of EGF-induced EGFR phosphorylation at Y1086 residue in human A549 cells at 0.2 uM preincubated for 2 hrs followed by EGF stimulation measured after 10 mins by Western blot analysis", "format": "cell-based"}, "[5]": {"target": "T1, Epidermal growth factor receptor", "assay": "Inhibition of EGF-induced EGFR activation in human A549 cells assessed as reduction in ERK1/2 phosphorylation at T202/Y204 residues at 0.2 uM preincubated for 2 hrs followed by EGF stimulation measured after 10 mins by Western blot analysis", "format": "cell-based"}, "A549 [6]": {"test_system": "A549", "assay": "Effect on total EGFR protein expression in human A549 cells at 0.2 to 5 uM after 2 hrs by Western blot analysis", "format": "ADME, cell-based", "details": "a549, 2 h"}, "A549 [7]": {"test_system": "A549", "assay": "Effect on total Erk1/2 protein expression in human A549 cells at 0.2 to 5 uM after 2 hrs by Western blot analysis", "format": "ADME, cell-based", "details": "a549, 2 h"}, "[8]": {"test_system": "Epidermal growth factor receptor (Homo sapiens), P00533 [L858R,T790M]", "sequence (P00533 whole entry T790M/L858R, looked up)": "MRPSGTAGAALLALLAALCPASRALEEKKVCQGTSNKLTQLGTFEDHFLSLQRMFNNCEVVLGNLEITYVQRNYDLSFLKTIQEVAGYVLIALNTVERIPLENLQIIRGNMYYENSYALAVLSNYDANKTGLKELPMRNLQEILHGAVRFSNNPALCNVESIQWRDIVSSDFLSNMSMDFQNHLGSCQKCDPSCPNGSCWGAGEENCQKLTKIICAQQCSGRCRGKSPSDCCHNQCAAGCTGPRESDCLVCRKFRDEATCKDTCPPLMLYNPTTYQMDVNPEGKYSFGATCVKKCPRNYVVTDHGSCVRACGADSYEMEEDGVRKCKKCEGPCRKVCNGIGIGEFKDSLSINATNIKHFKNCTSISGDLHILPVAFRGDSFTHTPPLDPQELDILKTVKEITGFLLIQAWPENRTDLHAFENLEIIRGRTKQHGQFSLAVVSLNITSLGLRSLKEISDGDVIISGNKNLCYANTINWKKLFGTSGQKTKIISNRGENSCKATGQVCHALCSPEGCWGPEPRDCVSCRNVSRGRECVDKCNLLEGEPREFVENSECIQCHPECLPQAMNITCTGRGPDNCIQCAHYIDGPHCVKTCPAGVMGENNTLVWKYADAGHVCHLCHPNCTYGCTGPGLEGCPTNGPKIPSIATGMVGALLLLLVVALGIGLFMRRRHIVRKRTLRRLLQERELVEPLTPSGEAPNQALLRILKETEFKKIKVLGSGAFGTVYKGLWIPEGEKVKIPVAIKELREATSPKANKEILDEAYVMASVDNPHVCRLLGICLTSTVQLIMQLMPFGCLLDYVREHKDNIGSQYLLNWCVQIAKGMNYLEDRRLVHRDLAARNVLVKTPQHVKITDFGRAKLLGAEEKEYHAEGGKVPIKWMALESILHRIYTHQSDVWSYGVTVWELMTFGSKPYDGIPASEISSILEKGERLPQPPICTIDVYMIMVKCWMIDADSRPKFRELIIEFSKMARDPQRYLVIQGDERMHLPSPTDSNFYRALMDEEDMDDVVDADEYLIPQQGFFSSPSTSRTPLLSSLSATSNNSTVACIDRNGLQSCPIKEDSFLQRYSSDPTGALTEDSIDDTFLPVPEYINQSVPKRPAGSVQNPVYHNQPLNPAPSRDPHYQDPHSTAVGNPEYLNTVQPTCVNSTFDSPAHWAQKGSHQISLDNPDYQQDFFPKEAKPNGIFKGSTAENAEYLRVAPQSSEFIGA", "assay": "Inhibition of EGF-induced EGFR L858R/T790M double mutant phosphorylation at Tyrosine residue in human NCI-H1975 cells preincubated for 2 hrs followed by EGF stimulation measured after 10 mins by Western blot analysis", "format": "cell-based"}, "[9]": {"test_system": "Epidermal growth factor receptor (Homo sapiens), P00533 [L858R,T790M]", "assay": "Inhibition of EGF-induced EGFR L858R/T790M double mutant phosphorylation at Y992 residue in human NCI-H1975 cells preincubated for 2 hrs followed by EGF stimulation measured after 10 mins by Western blot analysis", "format": "cell-based"}, "[10]": {"test_system": "Epidermal growth factor receptor (Homo sapiens), P00533 [L858R,T790M]", "assay": "Inhibition of EGF-induced EGFR L858R/T790M double mutant activation in human NCI-H1975 cells assessed as reduction in STAT3 phosphorylation at Y705 residue at 5 uM preincubated for 2 hrs followed by EGF stimulation measured after 10 mins by Western blot analysis", "format": "cell-based"}, "A549 [11]": {"test_system": "A549", "assay": "Induction of apoptosis in human A549 cells assessed as late apoptotic cells at 4 uM after 48 hrs by Annexin V-FITC/propidium iodide satining based FACS analysis (reference value: 1.21%)", "format": "functional"}, "A549 [12]": {"test_system": "A549", "assay": "Induction of apoptosis in human A549 cells assessed as necrotic cells at 4 uM after 48 hrs by Annexin V-FITC/propidium iodide satining based FACS analysis (reference value: 0.14%)", "format": "functional"}, "A549 [13]": {"test_system": "A549", "assay": "Induction of apoptosis in human A549 cells assessed as viable cells at 3 uM after 48 hrs by Annexin V-FITC/propidium iodide satining based FACS analysis (reference value: 95.87%)", "format": "functional", "details": "A549, 48 h, read-out: Activity"}, "A549 [14]": {"test_system": "A549", "assay": "Induction of apoptosis in human A549 cells assessed as necrotic cells at 3 uM after 48 hrs by Annexin V-FITC/propidium iodide satining based FACS analysis (reference value: 0.14%)", "format": "functional"}, "A549 [15]": {"test_system": "A549", "assay": "Induction of apoptosis in human A549 cells assessed as viable cells at 2 uM after 48 hrs by Annexin V-FITC/propidium iodide satining based FACS analysis (reference value: 95.87%)", "format": "functional", "details": "A549, 48 h, read-out: Activity"}, "A549 [16]": {"test_system": "A549", "assay": "Induction of apoptosis in human A549 cells assessed as early apoptotic cells at 2 uM after 48 hrs by Annexin V-FITC/propidium iodide satining based FACS analysis (reference value: 2.78%)", "format": "functional"}, "A549 [17]": {"test_system": "A549", "assay": "Induction of apoptosis in human A549 cells assessed as necrotic cells at 2 uM after 48 hrs by Annexin V-FITC/propidium iodide satining based FACS analysis (reference value: 0.14%)", "format": "functional"}, "A549 [18]": {"test_system": "A549", "assay": "Induction of apoptosis in human A549 cells assessed as early apoptotic cells at 1 uM after 48 hrs by Annexin V-FITC/propidium iodide satining based FACS analysis (reference value: 2.78%)", "format": "functional"}, "A549 [19]": {"test_system": "A549", "assay": "Induction of apoptosis in human A549 cells assessed as necrotic cells at 1 uM after 48 hrs by Annexin V-FITC/propidium iodide satining based FACS analysis (reference value: 0.14%)", "format": "functional"}, "A549 [20]": {"test_system": "A549", "assay": "Induction of apoptosis in human A549 cells after 48 hrs by Annexin V-FITC/propidium iodide satining based FACS analysis", "format": "functional, cell-based"}, "A549 [21]": {"test_system": "A549", "assay": "Cell cycle arrest in human A549 cells assessed as accumulation at G0/G1 phase at 5 uM after 48 hrs by propidium iodide satining based FACS analysis (reference value: 48.87%)", "format": "functional"}, "A549 [22]": {"test_system": "A549", "assay": "Cell cycle arrest in human A549 cells assessed as accumulation at S phase at 5 uM after 48 hrs by propidium iodide satining based FACS analysis (reference value: 34.45%)", "format": "functional"}, "A549 [23]": {"test_system": "A549", "assay": "Cell cycle arrest in human A549 cells assessed as accumulation at G0/G1 phase at 1 uM after 48 hrs by propidium iodide satining based FACS analysis (reference value: 48.87%)", "format": "functional"}, "A549 [24]": {"test_system": "A549", "assay": "Cell cycle arrest in human A549 cells assessed as accumulation at S phase at 1 uM after 48 hrs by propidium iodide satining based FACS analysis (reference value: 34.45%)", "format": "functional"}, "A549 [25]": {"test_system": "A549", "assay": "Cell cycle arrest in human A549 cells assessed as accumulation at G2/M phase at 1 uM after 48 hrs by propidium iodide satining based FACS analysis (reference value: 16.09%)", "format": "functional"}, "A549 [26]": {"test_system": "A549", "assay": "Cell cycle arrest in human A549 cells assessed as accumulation at G0/G1 phase at 0.5 uM after 48 hrs by propidium iodide satining based FACS analysis (reference value: 48.87%)", "format": "functional"}, "[27]": {"target": "T1, Epidermal growth factor receptor", "details": "A549, at 5 µM", "description": "Inhibition of EGF-induced EGFR phosphorylation at Y992 residue in human A549 cells at 5 uM preincubated for 2 hrs followed by EGF stimulation measured after 10 mins by Western blot analysis"}, "[28]": {"target": "T1, Epidermal growth factor receptor", "details": "A549, at 5 µM", "remark": "listed apart in the source", "description": "Inhibition of EGF-induced EGFR activation in human A549 cells assessed as reduction in Akt phosphorylation at S473 residue at 5 uM preincubated for 2 hrs followed by EGF stimulation measured after 10 mins by Western blot analysis"}, "[29]": {"target": "T1, Epidermal growth factor receptor", "details": "A549, at 5 µM", "remark": "listed apart in the source", "description": "Inhibition of EGF-induced EGFR activation in human A549 cells assessed as reduction in ERK1/2 phosphorylation at T202/Y204 residues at 5 uM preincubated for 2 hrs followed by EGF stimulation measured after 10 mins by Western blot analysis"}}, "note": "Calls of active or inactive are those of the source. The calls are words filed in the database; no cut-off is given here."}
{"smiles": "Fc1cccc(COc2ccc(Nc3ncnc4cc(OCCCN5CCOCC5)c(OCCCN5CCOCC5)cc34)cc2Cl)c1", "values": [{"measurement": "IC50", "setting": "A-431", "result": 1310, "unit": "nM"}, {"measurement": "IC50", "setting": "HCC827", "result": 370, "unit": "nM"}, {"measurement": "IC50", "setting": "NCI-H1975", "result": 4870, "unit": "nM"}, {"measurement": "IC50", "setting": "SW480", "result": 3270, "unit": "nM"}, {"measurement": "IC50", "setting": "[1]", "result": 323, "unit": "nM"}, {"measurement": "IC50", "setting": "[2]", "result": 9.3, "unit": "nM"}, {"measurement": "inhibition", "setting": "[3]", "result": "Active"}, {"measurement": "inhibition", "setting": "[4]", "result": "Active"}, {"measurement": "inhibition", "setting": "[5]", "result": "Active"}, {"measurement": "Activity", "setting": "A549 [6]", "result": "Non-Toxic"}, {"measurement": "Activity", "setting": "A549 [7]", "result": "Non-Toxic"}, {"measurement": "inhibition", "setting": "[8]", "result": "Dose-dependent effect"}, {"measurement": "inhibition", "setting": "[9]", "result": "Dose-dependent effect"}, {"measurement": "inhibition", "setting": "[10]", "result": "inactive"}, {"measurement": "Activity", "setting": "A549 [11]", "result": 36.18, "unit": "%"}, {"measurement": "Activity", "setting": "A549 [12]", "result": 0.57, "unit": "%"}, {"measurement": "viability at 3 µM", "setting": "A549 [13]", "result": 82.8, "unit": "%"}, {"measurement": "Activity", "setting": "A549 [14]", "result": 0.23, "unit": "%"}, {"measurement": "viability at 2 µM", "setting": "A549 [15]", "result": 87.9, "unit": "%"}, {"measurement": "Activity", "setting": "A549 [16]", "result": 4.46, "unit": "%"}, {"measurement": "Activity", "setting": "A549 [17]", "result": 0.31, "unit": "%"}, {"measurement": "Activity", "setting": "A549 [18]", "result": 3.9, "unit": "%"}, {"measurement": "Activity", "setting": "A549 [19]", "result": 0.4, "unit": "%"}, {"measurement": "Activity", "setting": "A549 [20]", "result": "Dose-dependent effect"}, {"measurement": "Activity", "setting": "A549 [21]", "result": 73.54, "unit": "%"}, {"measurement": "Activity", "setting": "A549 [22]", "result": 17.61, "unit": "%"}, {"measurement": "Activity", "setting": "A549 [23]", "result": 52.91, "unit": "%"}, {"measurement": "Activity", "setting": "A549 [24]", "result": 34.83, "unit": "%"}, {"measurement": "Activity", "setting": "A549 [25]", "result": 11.69, "unit": "%"}, {"measurement": "Activity", "setting": "A549 [26]", "result": 50.78, "unit": "%"}, {"measurement": "inhibition", "setting": "[27]", "result": "Active"}, {"measurement": "inhibition", "setting": "[28]", "result": "Active"}, {"measurement": "inhibition", "setting": "[29]", "result": "Active"}]}
